Laboratory results taken from patent publication US20220339143A1, “TAK-925 FOR USE IN TREATING NARCOLEPSY” (Takeda Pharmaceutical Company Limited, priority 2019, published 2022).
Read-outs that look alike come from different tables or passages of the source.

Assay: Single dose PK in healthy subjects (Cohorts 1, 2, S1 and S2), plasma
Assay type: in vivo, human
Settings: human, plasma, intravenous
Procedure: This study investigates (i) the safety and tolerability of Compound A (methyl (2R,3S)-3-((methylsulfonyl)amino)-2-(((cis-4-phenylcyclohexyl)oxy)methyl)piperidine-1-carboxylate) when a single dose given as a 9 hour continuous IV infusion is administered to healthy adults, healthy elderly subjects and patients with narcolepsy type 1 (NT1); (ii) the pharmacokinetics of Compound A when a single dose given as a 9 hour continuous IV infusion is administered to healthy adults, healthy elderly subjects and patients with narcolepsy type 1; and (iii) the pharmacodynamics (PD) effects of Compound A, primarily by evaluation of the sleep latency on MWT when a single dose given as a 9 hour continuous IV infusion is administered to patients with narcolepsy type 1.
Pharmacokinetics: Concentrations of Compound A in plasma, and CSF, and pharmacokinetics parameters.
On average, the time to reach the plateau appeared to be approximately 3 to 4 hours after the start of infusion. […] After switching off the IV infusion, Compound A plasma concentrations declined rapidly and in a biphasic manner with a mean terminal disposition phase t1/2z ranging approximately from 3.4 to 5.1 hours across all doses. […] Table 5 provides a summary of plasma concentrations of Compound A after a single IV infusion in healthy subjects. Table 6 provides a summary of pharmacokinetic parameters of Compound A after a single IV infusion in healthy subjects.

[1] = 14 mg, read-out: Plasma concentration, Maximum
[2] = 14 mg, read-out: Plasma concentration, Mean
[3] = 14 mg, read-out: Plasma concentration, Median
[4] = 14 mg, read-out: Plasma concentration, Minimum
[5] = 14 mg, read-out: Plasma concentration, Q1
[6] = 14 mg, read-out: Plasma concentration, Q3
[7] = 28 mg, read-out: Plasma concentration, Maximum
[8] = 28 mg, read-out: Plasma concentration, Mean
[9] = 28 mg, read-out: Plasma concentration, Median
[10] = 28 mg, read-out: Plasma concentration, Minimum
[11] = 28 mg, read-out: Plasma concentration, Q1
[12] = 28 mg, read-out: Plasma concentration, Q3

COC(=O)N1CCC[C@H](NS(C)(=O)=O)[C@@H]1CO[C@H]1CC[C@@H](c2ccccc2)CC1 [Compound A, methyl (2R,3S)-3-((methylsulfonyl)amino)-2-(((cis-4-phenylcyclohexyl)oxy)methyl)piperidine-1-carboxylate]
concentration at 3 hr (7 mg, 3 hr, read-out: Plasma concentration, Q1): 15.1 ng/mL
concentration at 3 h (7 mg, 3 hr, read-out: Plasma concentration, Q3): 18.8 ng/mL
concentration at 4 h (7 mg, 4 hr, read-out: Plasma concentration, Maximum): 20.6 ng/mL
concentration at 4 h (7 mg, 4 hr, read-out: Plasma concentration, Mean): 15.9 ng/mL
concentration at 4 h (7 mg, 4 hr, read-out: Plasma concentration, Median): 15.5 ng/mL
concentration at 4 h (7 mg, 4 hr, read-out: Plasma concentration, Minimum): 11.1 ng/mL
concentration at 4 hr (7 mg, 4 hr, read-out: Plasma concentration, Q1): 15.2 ng/mL
concentration at 4 h (7 mg, 4 hr, read-out: Plasma concentration, Q3): 17.6 ng/mL
concentration at 6 h (7 mg, 6 hr, read-out: Plasma concentration, Maximum): 15.9 ng/mL
concentration at 6 h (7 mg, 6 hr, read-out: Plasma concentration, Mean): 12.2 ng/mL
concentration at 6 h (7 mg, 6 hr, read-out: Plasma concentration, Median): 12.4 ng/mL
concentration at 6 h (7 mg, 6 hr, read-out: Plasma concentration, Minimum): 8.82 ng/mL
concentration at 6 hr (7 mg, 6 hr, read-out: Plasma concentration, Q1): 11.4 ng/mL
concentration at 6 h (7 mg, 6 hr, read-out: Plasma concentration, Q3): 12.5 ng/mL
concentration at 8 h (7 mg, 8 hr, read-out: Plasma concentration, Maximum): 16.1 ng/mL
concentration at 8 h (7 mg, 8 hr, read-out: Plasma concentration, Mean): 13 ng/mL
concentration at 8 h (7 mg, 8 hr, read-out: Plasma concentration, Median): 13.1 ng/mL
concentration at 8 h (7 mg, 8 hr, read-out: Plasma concentration, Minimum): 9.5 ng/mL
concentration at 8 hr (7 mg, 8 hr, read-out: Plasma concentration, Q1): 12.8 ng/mL
concentration at 8 h (7 mg, 8 hr, read-out: Plasma concentration, Q3): 13.4 ng/mL
concentration at 9 h (7 mg, 9 hr, read-out: Plasma concentration, Maximum): 15.2 ng/mL
concentration at 9 h (7 mg, 9 hr, read-out: Plasma concentration, Mean): 13.5 ng/mL
concentration at 9 h (7 mg, 9 hr, read-out: Plasma concentration, Median): 13.9 ng/mL
concentration at 9 h (7 mg, 9 hr, read-out: Plasma concentration, Minimum): 10.2 ng/mL
concentration at 9 hr (7 mg, 9 hr, read-out: Plasma concentration, Q1): 13.2 ng/mL
concentration at 9 h (7 mg, 9 hr, read-out: Plasma concentration, Q3): 15 ng/mL
concentration at 0.5 h [1]: 27.2 ng/mL
concentration at 0.5 h [2]: 22.5 ng/mL
concentration at 0.5 h [3]: 22.1 ng/mL
concentration at 0.5 h [4]: 18 ng/mL
concentration at 0.5 h [5]: 21.7 ng/mL
concentration at 0.5 h [6]: 23.9 ng/mL
concentration at 1 h [1]: 32.1 ng/mL
concentration at 1 h [2]: 26.6 ng/mL
concentration at 1 h [3]: 26.9 ng/mL
concentration at 1 h [4]: 21.8 ng/mL
concentration at 1 h [5]: 22.6 ng/mL
concentration at 1 h [6]: 29.7 ng/mL
concentration at 1.5 h [1]: 36.1 ng/mL
concentration at 1.5 h [2]: 30.4 ng/mL
concentration at 1.5 h [3]: 29 ng/mL
concentration at 1.5 h [4]: 27.4 ng/mL
concentration at 1.5 h [5]: 27.6 ng/mL
concentration at 1.5 h [6]: 33.6 ng/mL
concentration at 2 h (14 mg, 2 hr, read-out: Plasma concentration, Maximum): 37.8 ng/mL
concentration at 2 h (14 mg, 2 hr, read-out: Plasma concentration, Mean): 32.9 ng/mL
concentration at 2 h (14 mg, 2 hr, read-out: Plasma concentration, Median): 32 ng/mL
concentration at 2 h (14 mg, 2 hr, read-out: Plasma concentration, Minimum): 29.6 ng/mL
concentration at 2 h (14 mg, 2 hr, read-out: Plasma concentration, Q1): 30 ng/mL
concentration at 2 h (14 mg, 2 hr, read-out: Plasma concentration, Q3): 35.8 ng/mL
concentration at 3 h (14 mg, 3 hr, read-out: Plasma concentration, Maximum): 43.5 ng/mL
concentration at 3 h (14 mg, 3 hr, read-out: Plasma concentration, Mean): 35.8 ng/mL
concentration at 3 h (14 mg, 3 hr, read-out: Plasma concentration, Median): 34.3 ng/mL
concentration at 3 h (14 mg, 3 hr, read-out: Plasma concentration, Minimum): 31.8 ng/mL
concentration at 3 h (14 mg, 3 hr, read-out: Plasma concentration, Q1): 32.1 ng/mL
concentration at 3 h (14 mg, 3 hr, read-out: Plasma concentration, Q3): 39 ng/mL
concentration at 4 h (14 mg, 4 hr, read-out: Plasma concentration, Maximum): 40.4 ng/mL
concentration at 4 h (14 mg, 4 hr, read-out: Plasma concentration, Mean): 36.4 ng/mL
concentration at 4 h (14 mg, 4 hr, read-out: Plasma concentration, Median): 37 ng/mL
concentration at 4 h (14 mg, 4 hr, read-out: Plasma concentration, Minimum): 31 ng/mL
concentration at 4 h (14 mg, 4 hr, read-out: Plasma concentration, Q1): 33 ng/mL
concentration at 4 h (14 mg, 4 hr, read-out: Plasma concentration, Q3): 40 ng/mL
concentration at 6 h (14 mg, 6 hr, read-out: Plasma concentration, Maximum): 35.2 ng/mL
concentration at 6 h (14 mg, 6 hr, read-out: Plasma concentration, Mean): 29.3 ng/mL
concentration at 6 h (14 mg, 6 hr, read-out: Plasma concentration, Median): 29.7 ng/mL
concentration at 6 h (14 mg, 6 hr, read-out: Plasma concentration, Minimum): 23.1 ng/mL
concentration at 6 h (14 mg, 6 hr, read-out: Plasma concentration, Q1): 23.9 ng/mL
concentration at 6 h (14 mg, 6 hr, read-out: Plasma concentration, Q3): 34.4 ng/mL
concentration at 8 h (14 mg, 8 hr, read-out: Plasma concentration, Maximum): 34.4 ng/mL
concentration at 8 h (14 mg, 8 hr, read-out: Plasma concentration, Mean): 28.9 ng/mL
concentration at 8 h (14 mg, 8 hr, read-out: Plasma concentration, Median): 29.9 ng/mL
concentration at 8 h (14 mg, 8 hr, read-out: Plasma concentration, Minimum): 22.6 ng/mL
concentration at 8 h (14 mg, 8 hr, read-out: Plasma concentration, Q1): 24.6 ng/mL
concentration at 8 h (14 mg, 8 hr, read-out: Plasma concentration, Q3): 32.3 ng/mL
concentration at 9 h (14 mg, 9 hr, read-out: Plasma concentration, Maximum): 34.2 ng/mL
concentration at 9 h (14 mg, 9 hr, read-out: Plasma concentration, Mean): 30.1 ng/mL
concentration at 9 h (14 mg, 9 hr, read-out: Plasma concentration, Median): 30.8 ng/mL
concentration at 9 h (14 mg, 9 hr, read-out: Plasma concentration, Minimum): 22.8 ng/mL
concentration at 9 h (14 mg, 9 hr, read-out: Plasma concentration, Q1): 28.4 ng/mL
concentration at 9 h (14 mg, 9 hr, read-out: Plasma concentration, Q3): 33.5 ng/mL
concentration at 0.5 h [7]: 48.7 ng/mL
concentration at 0.5 hr [8]: 34.4 ng/mL
concentration at 0.5 hr [9]: 32 ng/mL
concentration at 0.5 hr [10]: 19.1 ng/mL
concentration at 0.5 hr [11]: 29.6 ng/mL
concentration at 0.5 h [12]: 42.6 ng/mL
concentration at 1 h [7]: 51.8 ng/mL
concentration at 1 hr [8]: 37.9 ng/mL
concentration at 1 hr [9]: 36.6 ng/mL
concentration at 1 hr [10]: 21.7 ng/mL
concentration at 1 hr [11]: 36.5 ng/mL
concentration at 1 h [12]: 42.8 ng/mL
concentration at 1.5 h [7]: 55.9 ng/mL
concentration at 1.5 hr [8]: 44.9 ng/mL
concentration at 1.5 h [9]: 47.1 ng/mL
concentration at 1.5 hr [10]: 27.2 ng/mL
concentration at 1.5 hr [11]: 44.4 ng/mL
concentration at 1.5 h [12]: 49.9 ng/mL
concentration at 2 h (28 mg, 2 hr, read-out: Plasma concentration, Maximum): 58.4 ng/mL
concentration at 2 hr (28 mg, 2 hr, read-out: Plasma concentration, Mean): 50.1 ng/mL
concentration at 2 h (28 mg, 2 hr, read-out: Plasma concentration, Median): 54.9 ng/mL
